Measured values taken from article PMC3610419, “A Randomized, Double-Blind Placebo Controlled Trial of Balapiravir, a Polymerase Inhibitor, in Adult Dengue Patients” (The Journal of Infectious Diseases, 2012).

Key:
DENV-1 = test: Inhibition of DENV replication in Huh-7 cells, viral RNA by quantitative real time PCR; assay type: cell-based, dengue virus; conditions: Dengue virus, DENV1, Huh-7, 48 h, mean ± SD of 3 experiments
Procedure: (§1) ^a Each experiment was done in duplicate. The mean and standard deviation shown represent 3 independent (different date) experiments for each virus tested. Huh-7 cells were plated in 96-well plate at 10,000 cells/well in DMEM containing 10 % FBS in 100 μl volume one day prior to set up of the assay. The following day the medium was aspirated off and diluted virus at a multiplicity of infection of 0.5 or media was added to the assay and control wells, respectively. The virus was allowed to attach to the cells for two hours at 37°C in a humidified 5% C02 atmosphere while the dilutions of the test molecule were prepared. Test molecules (or medium as a control) were added after aspiration of the virus-containing media 2 hours post-infection in 3-fold dilutions at a final DMSO concentration of 1%. After 48 hrs, cells were washed and cellular RNA were isolated. In this study, we used a quantitative real time PCR method to quantitate dengue viral RNA in Huh-7 in the presence of inhibitors. Viral RNA and endogenous 18S rRNA control (Applied Bio System) was quantified by a real time PCR assay using the following primers. Dengue Reverse (Common to all the serotypes): 5’-[…]-3’, Dengue forward serotype 1: 5’-[…]-3’, Dengue forward serotype 2 or 3: 5’-[…]-3’, Dengue forward serotype 4: 5’-[…] -3’ and Dengue probe (Common to all the serotypes): 5'-/56-FAM/[…]/3BHQ_1/-3'. Taqman was performed in duplicate. IC50 was obtained using the following calculations. First ΔCt was calculated by subtracting 18S rRNA CT value from dengue RNA CT value. ΔCts from duplicate taqman assay were averaged. Then ΔΔCt was obtained by subtracting the average ΔCt of non-treated sample from the treated sample average ΔCt. Relative quantification was calculated using the following formula. Relative quantification = 2^-averageΔΔCT. The 50% inhibitory concentrations (EC50) were calculated using the sigmoidal dose-response model in Microsoft XLfit.

DENV-2 = test: as above; assay type: cell-based, dengue virus; conditions: Dengue virus, DENV2, Huh-7, 48 h, mean ± SD of 3 experiments
Procedure: as §1

DENV-3 = test: as above; assay type: cell-based, dengue virus; conditions: Dengue virus, DENV3, Huh-7, 48 h, mean ± SD of 3 experiments
Procedure: as §1

DENV-4 = test: as above; assay type: cell-based, dengue virus; conditions: Dengue virus, DENV4, Huh-7, 48 h, mean ± SD of 3 experiments
Procedure: as §1

NS1 = NS1 antigenemia (Platelia NS1 assay) in adult dengue patients, randomized placebo-controlled trial; assay type: in vivo, human; conditions: Kaplan-Meier estimate
Procedure: Randomization to treatment group was by computer-generated randomization sequencing in blocks of 2. Balapiravir was formulated in a 500-mg film-coated tablet. The placebo consisted of an identical looking tablet containing excipient only. All balapiravir and placebo tablets were provided by F. Hoffmann-La Roche. Patients in cohort 1 (n = 20) received 1500 mg of balapiravir or an identical placebo orally every 12 hours for 5 days (10 doses). The decision to dose escalate (to 3000 mg) was made after review of the partially unblinded group mean clinical and laboratory data acquired from patients in cohort 1. Patients in cohort 2 (n = 44) received 3000 mg of balapiravir or placebo orally twice a day for 5 days (10 doses).

## CC(C)C(=O)OC[C@@]1(N=[N+]=[N-])O[C@@H](n2ccc(N)nc2=O)[C@H](OC(=O)C(C)C)[C@@H]1OC(=O)C(C)C [Balapiravir]
DENV-1; DENV-1 strain FR28 (clinical isolate)
  IC50: 6.8 ± 1.1 µM
DENV-1; DENV-1 strain FR34 (clinical isolate)
  IC50: 7 ± 2 µM
DENV-1; DENV-1 strain FR37 (clinical isolate)
  IC50: 7.2 ± 2 µM
DENV-1; DENV-1 strain FR42 (clinical isolate)
  IC50: 7.4 ± 2.3 µM
DENV-1; DENV-1 strain Thsman
  IC50: 8.8 ± 1.2 µM
DENV-2; DENV-2 strain 32/0102 (clinical isolate), Huh-7 cells
  IC50: 3 ± 0.5 µM
DENV-2; DENV-2 strain 32/0140 (clinical isolate), Huh-7 cells
  IC50: 1.9 ± 0.7 µM
DENV-2; DENV-2 strain 33/0051 (clinical isolate), Huh-7 cells
  IC50: 2 ± 0.2 µM
DENV-2; DENV-2 strain 33/0178 (clinical isolate), Huh-7 cells
  IC50: 2 ± 0.6 µM
DENV-2; DENV-2 strain Th36, Huh-7 cells
  IC50: 4.6 ± 0.4 µM
DENV-3; DENV-3 strain 33/0072 (clinical isolate), Huh-7 cells
  IC50: 3 ± 0.4 µM
DENV-3; DENV-3 strain 33/0096 (clinical isolate), Huh-7 cells
  IC50: 3.4 ± 1.7 µM
DENV-3; DENV-3 strain 33/0177 (clinical isolate), Huh-7 cells
  IC50: 3.2 ± 0.9 µM
DENV-3; DENV-3 strain 33/0253 (clinical isolate), Huh-7 cells
  IC50: 4.4 ± 0.9 µM
DENV-3; DENV-3 strain H87, Huh-7 cells
  IC50: 3.7 ± 0.9 µM
DENV-4; DENV-4 strain H241, Huh-7 cells
  IC50: 11 ± 1 µM
DENV-4; DENV-4 strain Phili/1567, Huh-7 cells
  IC50: 2 ± 0.4 µM
DENV-4; DENV-4 strain Senga/DA, Huh-7 cells
  IC50: 6.5 ± 0.9 µM
DENV-4; DENV-4 strain Venz/JQ, Huh-7 cells
  IC50: 5.5 ± 1.3 µM
NS1; High-dose (3000 mg twice a day, 5 days), n = 22
  Median time to first negative NS1 test result (IQR): 4 (3–6) d
NS1; Low-dose (1500 mg twice a day, 5 days), n = 10
  Median time to first negative NS1 test result (IQR): 3 (3–14) d
